Measured values published in US8436039B2, “Inhibitors of the ATB(0,+) transporter and uses thereof” (Georgia Health Sciences University Research Institute, Inc., priority 2008, dated 2013).

Key:
mouse ATB^0,+ [1] = biological target: T1, mouse ATB^0,+ (Mus musculus, UniProt Q9JMA9); test: Inhibition of ATB^0,+-mediated glycine uptake in HRPE cells expressing cloned mouse ATB^0,+; format: cell-based; conditions: glycine 10 μM; inhibitor 1 mM; 30 min; NaCl; HRPE cells
T1 sequence (Q9JMA9 1-638): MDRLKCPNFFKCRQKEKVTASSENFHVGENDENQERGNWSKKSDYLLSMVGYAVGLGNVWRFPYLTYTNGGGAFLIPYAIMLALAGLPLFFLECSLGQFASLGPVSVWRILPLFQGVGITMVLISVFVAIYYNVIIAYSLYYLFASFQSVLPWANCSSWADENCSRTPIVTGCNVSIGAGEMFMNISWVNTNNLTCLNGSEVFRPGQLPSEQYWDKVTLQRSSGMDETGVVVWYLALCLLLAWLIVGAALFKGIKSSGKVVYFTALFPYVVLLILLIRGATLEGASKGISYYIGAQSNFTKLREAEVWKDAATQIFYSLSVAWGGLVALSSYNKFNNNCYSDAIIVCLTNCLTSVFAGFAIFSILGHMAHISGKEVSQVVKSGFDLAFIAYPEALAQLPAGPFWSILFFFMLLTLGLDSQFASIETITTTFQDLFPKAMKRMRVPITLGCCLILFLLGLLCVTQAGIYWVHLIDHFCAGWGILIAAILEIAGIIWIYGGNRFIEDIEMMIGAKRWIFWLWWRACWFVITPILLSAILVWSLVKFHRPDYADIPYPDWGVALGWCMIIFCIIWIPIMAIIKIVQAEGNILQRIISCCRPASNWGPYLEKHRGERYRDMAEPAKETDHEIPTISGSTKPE

mouse ATB^0,+ [2] = biological target: T1, mouse ATB^0,+; test: Substrate-induced inward currents in X. laevis oocytes expressing mouse ATB^0,+ (two-microelectrode voltage clamp); format: cell-based; conditions: saturation kinetics; NaCl; voltage clamp
Procedure: (§1) Capped cRNA from the cloned mouse or human ATB^0,+ cDNA was synthesized using the mMESSAGE mMACHTNE kit (Ambion, Austin, Tex., U.S.A.). Mature oocytes (stage IV or V) from X. laevis were injected with 50 ng of cRNA. Uninjected oocytes served as controls. The oocytes were used for electrophysiological studies 3-6 days after cRNA injection. Electrophysiological studies were performed by the two-microelectrode voltage-clamp method (Nakanishi et al., 2001, J. Physiol. 532, 297-304). Oocytes were superfused with an NaCl-containing buffer (100 mM NaCl, 2 mM KCl, 1 mM MgCl2, 1 mM CaCl2, 3 mM Hepes, 3 mM Mes and 3 mM Tris, pH 7.5), followed by the same buffer containing tryptophan derivatives. The membrane potential was clamped at −50 mV. The differences between the steady-state currents measured in the presence and absence of substrates were considered as the substrate-induced currents. In the analysis of the saturation kinetics of substrate-induced currents, the kinetic parameter K0.5 (i.e. substrate concentration necessary for induction of half-maximal current) was calculated by fitting the values of the substrate-induced currents to the Michaelis-Menten equation. The Na^+ and Cl^− activation kinetics of substrate-induced currents were analysed by measuring the substrate-specific currents in the presence of increasing concentrations of Na^+ (concentration of Cl^− kept constant at 100 mM) or in the presence of increasing concentrations of Cl^− (concentration of Na^+ kept constant at 100 mM). In these experiments, the composition of the superfusion buffer was modified to contain 2 mM potassium gluconate, 1 mM MgSO4 and 1 mM calcium gluconate in place of KCl, MgCl2 and CaCl2 respectively. The data from these experiments were analysed by the Hill equation to determine the Hill coefficient (h; number of Na^+ and Cl^− ions involved in the activation process). The kinetic parameters were determined by using the commercially available computer program Sigma Plot, version 6.0 (SPSS, Chicago, Ill., U.S.A.). Uninjected oocytes were used to determine the currents induced by tryptophan derivatives due to entry via transporters that may be constitutively expressed in the oocytes. At a concentration of 2.5 mM, the currents induced by these compounds were in the range of 0-3 nA in uninjected oocytes. These currents were less than 2% of the corresponding currents induced in ATB^0,+ cRNA-injected oocytes. Therefore the endogenous currents associated with the constitutively expressed transporters were not considered in the analysis of kinetic parameters of ATB^0,+ transport activity.
The above studies with the mammalian cell expression system have focused on the interaction of 1-methyltryptophan and other tryptophan derivatives with ATB^0,+ by examining the effects of these compounds on the transporter-mediated glycine uptake. These studies have shown convincingly that 1-methyltryptophan interacts with ATB^0,+, with the L-isomer having much higher affinity for the transporter than the D-isomer. However, these studies have not shown whether or not 1-methyltryptophan is actually a transportable substrate for ATB^0,+. It is possible that 1-methyltryptophan inhibits ATB^0,+-mediated glycine uptake simply by blocking the interaction of glycine with the substrate-binding site of the transporter, rather than by actually competing with glycine for the transport process. […] We wanted to know whether 1-methyltryptophan can actually be transported by ATB^0,+. For this, we used the X. laevis oocyte expression system. Since the transport process mediated by ATB^0,+ is electrogenic, exposure of ATB^0,+-expressing oocytes to transportable substrates will induce an inward current in an Na^+- and Cl^−-dependent manner. Exposure of the same oocytes to blockers will interfere with currents induced by transportable substrates, but will not induce currents by themselves. […]

human ATB^0,+ [3] = biological target: T2, human ATB^0,+ (Homo sapiens, UniProt Q9UN76); test: L-tryptophan-induced inward currents in X. laevis oocytes expressing human ATB^0,+; format: cell-based; conditions: 20 μM L-tryptophan (sub-saturating)
T2 construct: The human ATB^0,+ cDNA was cloned from an MCF7 cell (a human mammary epithelial cancer cell line) cDNA library; expressed in transfected cells; host or cells: Xenopus laevis oocytes injected with 50 ng capped cRNA
T2 sequence (Q9UN76 1-642): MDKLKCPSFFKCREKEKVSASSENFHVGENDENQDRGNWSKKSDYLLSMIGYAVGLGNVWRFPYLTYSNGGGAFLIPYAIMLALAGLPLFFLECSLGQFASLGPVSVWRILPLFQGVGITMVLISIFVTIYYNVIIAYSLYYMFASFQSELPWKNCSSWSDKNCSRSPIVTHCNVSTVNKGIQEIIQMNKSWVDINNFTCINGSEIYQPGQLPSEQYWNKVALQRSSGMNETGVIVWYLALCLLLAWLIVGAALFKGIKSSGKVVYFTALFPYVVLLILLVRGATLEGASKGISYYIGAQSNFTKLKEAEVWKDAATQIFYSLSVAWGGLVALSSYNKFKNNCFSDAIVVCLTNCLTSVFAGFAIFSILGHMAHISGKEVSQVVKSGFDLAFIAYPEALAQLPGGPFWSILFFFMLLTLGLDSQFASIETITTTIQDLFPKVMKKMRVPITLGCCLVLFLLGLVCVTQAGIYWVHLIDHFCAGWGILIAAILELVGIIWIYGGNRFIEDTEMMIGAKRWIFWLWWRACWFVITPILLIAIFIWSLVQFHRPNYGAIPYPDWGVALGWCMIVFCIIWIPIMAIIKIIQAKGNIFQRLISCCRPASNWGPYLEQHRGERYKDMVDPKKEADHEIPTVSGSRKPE
Procedure: as §1, with “Uninjected oocytes were used to determine the currents induced by tryptophan derivatives due to entry via transporters that may be constitutively expressed in the oocytes. At a concentration of 2.5 mM, the currents induced by these compounds were in the range of 0-3 nA in uninjected oocytes. These currents were less than 2% of the corresponding currents induced in ATB^0,+ cRNA-injected oocytes. Therefore the endogenous currents associated with the constitutively expressed transporters were not considered in the analysis of kinetic parameters of ATB^0,+ transport activity.” left out

human ATB^0,+ [4] = biological target: T2, human ATB^0,+; test: Block of inward currents induced by amino acid mixture simulating plasma in X. laevis oocytes expressing human ATB^0,+; format: cell-based
Procedure: as §1
These studies with α-methyl-DL-tryptophan as a blocker of ATB^0,+ were carried out with L-tryptophan at sub-saturating concentrations. […] Therefore, using the Xenopus oocyte heterologous expression system, we monitored the transport activity of human ATB^0,+ in the presence of an amino acid mixture consisting of 18 different amino acids, each at its respective physiological concentration found in plasma (Glew et al., 2004, Clin. Chim. Acta 342, 179-185) (Table 1). Inward currents were detected under these conditions in oocytes expressing human ATB^0,+. […] We then monitored the ability of α-methyl-DL-tryptophan to block the inward currents induced by the same mixture of amino acids in oocytes expressing human ATB^0,+ (FIG. 4B). […]

HCT116 and LS174T cells [5] = test: Amino acid starvation markers: ASNS and CHOP gene induction in ATB^0,+-positive colon cancer cell lines; format: cell-based, human; conditions: 250 μM; 24 hour exposure
Procedure: (§2) The mTOR pathway plays a critical role in nutrient signaling in mammalian cells (Wang and Proud, 2006, Physiology (Bethesda) 21: 362-369). Amino acid starvation leads to specific changes in this pathway. We sought evidence for amino acid starvation in ATB^0,+-positive colon cancer cell lines when exposed to α-methyl-L-tryptophan (α-MLT) (250 μM). […] These changes were also accompanied with cell cycle arrest in cancer cell lines (FIG. 16). In the normal cell line CCD841, there was no difference between control and α-MLT-treated cells in terms of percent of cells in difference cell cycle stages. […] The phosphorylation pattern observed in the two cancer cell lines is a hallmark of changes in mTOR pathway in response to amino acid deprivation. Autophagy (self-cannabilism) is another cellular process that is induced when cells undergo amino acid deprivation (Eisenberg-Lerner and Kimchi, 2009, Apoptosis 14: 376-391). To survive in the absence of exogenous essential amino acids during amino acid deprivation, cells engage in autophagic degradation of intracellular macromolecules and organelles as a source of these amino acids. Therefore, we investigated the process of autophagy in LS174T cells with and without exposure to α-MLT for 24 hours. For this, we analyzed the distribution of LC-3 protein. […] Apoptosis was quantified by FACS analysis.

HCT116 and LS174T cells [6] = test: Cell cycle analysis in colon cancer cell lines; format: cell-based, human; conditions: 250 μM; 24 hour
Procedure: as §2

CCD841 cells [7] = test: Cell cycle analysis in normal colon cell line; format: cell-based, human; conditions: 250 μM; 24 hour
Procedure: as §2

HCT116 and LS174T cells [8] = test: mTOR pathway: phosphorylation of S6 protein and S6 kinase in colon cancer cell lines; format: cell-based, human; conditions: 24 h exposure
Procedure: as §2

CCD841 cells [9] = test: mTOR pathway: phosphorylation of S6 protein and S6 kinase in normal colon cell line; format: cell-based, human; conditions: 24 h exposure
Procedure: as §2

LS174T cells = test: Autophagy: immunofluorescent localization of LC-3 in colon cancer cells; format: cell-based, human; conditions: 24 hours exposure
Procedure: as §2

CCD841 cells [10] = test: Autophagy: immunofluorescent localization of LC-3 in normal colon cells; format: cell-based, human; conditions: absence or presence of α-MLT
HCT116 and LS174T cells [11] = test: Apoptosis (sub-G1 cells, FACS) in colon cancer cell lines; format: cell-based, human; conditions: 72 hours
Procedure: as §2

Structure (SMILES) | inhibition of ATB^0,+-specific glycine uptake (mouse ATB^0,+ [1]) | Michaelis constant (K0.5) of substrate-induced currents (mouse ATB^0,+ [2]) [µM] | inward currents induced by L-tryptophan (human ATB^0,+ [3]) [nA] | IC50 (human ATB^0,+ [4]; 18 amino acids at normal plasma concentrations, read-out: concentration necessary to elicit 50% of maximal inhibition (IC50) of amino acid mixture-induced currents) [µM] | IC50 of L-isomer relative to DL-form (times less) (human ATB^0,+ [4]; amino acid mixture simulating plasma) [times] | induction of ASNS and CHOP genes (HCT116 and LS174T cells [5]) | percent of cells in G1 phase (HCT116 and LS174T cells [6]) | percent of cells in S and G2/M phases (HCT116 and LS174T cells [6]) | percent of cells in different cell cycle stages, control versus treated (CCD841 cells [7]) | phosphorylation of S6 protein and S6 kinase (HCT116 and LS174T cells [8]) | phosphorylation of S6 protein and S6 kinase (CCD841 cells [9]) | punctate fluorescent signals for LC-3 (autophagy) (LS174T cells) | autophagy (CCD841 cells [10]) | percent of apoptotic cells (cells in sub-G1 phase) (HCT116 and LS174T cells [11])
N[C@@H](Cc1c[nH]c2ccccc12)C(=O)O [L-tryptophan] | inhibited | 26 ± 3 | ~30 |  |  |  |  |  |  |  |  |  |  | 
C[C@](N)(Cc1c[nH]c2ccccc12)C(=O)O [α-methyl-L-tryptophan, α-Methyl-L-Tryptophan] |  |  |  | 18 ± 5 | 14 | induced | increased significantly | decreased | no difference | decreased phosphorylation | not in CCD841 cells | showed clear evidence of such signals | did not undergo autophagy | increased the percent of apoptotic cells
